Source: PMC5846726, “Characterization of the Mel1c melatoninergic receptor in platypus (Ornithorhynchus anatinus)” (PLoS ONE, 2018)
Where two headings read alike, the source gives them in different places.

Experiments:
quinone reductase 2; QR2 = system: quinone reductase 2; QR2; set-up: method as in PMID 10913150; conditions: introduction statement, 'in the 10 μM range'; cited from earlier work
X. laevis Mel1c receptor = target: T1, X. laevis Mel1c receptor (Xenopus laevis, UniProt P49219); assay: 2-[125I]-iodomelatonin competition binding, transiently transfected COS7 cells, Xenopus Mel1c; conditions: COS7 cells transiently transfected with Mel1c gene; radioligand 2-[125I]-iodomelatonin; two transfections, triplicate; read-out: pKi Xenopus laevis (converted)
T1 construct: expressed in transfected cells; host or cells: COS7 (transient nucleofection, pCIneo vector)
T1 sequence (P49219 1-354 isoform P49219-2): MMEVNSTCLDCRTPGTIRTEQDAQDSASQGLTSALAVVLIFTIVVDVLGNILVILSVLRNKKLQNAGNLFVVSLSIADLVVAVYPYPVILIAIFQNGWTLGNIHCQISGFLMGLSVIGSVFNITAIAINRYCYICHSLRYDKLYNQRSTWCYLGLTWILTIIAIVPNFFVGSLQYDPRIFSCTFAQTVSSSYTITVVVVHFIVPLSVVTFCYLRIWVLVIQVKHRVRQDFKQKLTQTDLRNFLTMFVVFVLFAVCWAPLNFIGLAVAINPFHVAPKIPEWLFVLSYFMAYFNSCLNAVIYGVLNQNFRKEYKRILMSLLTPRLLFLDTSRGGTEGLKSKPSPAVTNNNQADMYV
Procedure: (§1) COS7 cells obtained from the American Type Culture Collection were maintained in DMEM GlutaMAX (Thermo Fisher Scientific, Waltham, USA) supplemented with 10% (v/v) fetal calf serum. Nucleofection of COS7 cells was performed according to the manufacturer's instructions using the Nucleofector machine (Amaxa, Cologne, Germany). Adherent COS7 cells were washed in phosphate-buffered saline (PBS), trypsinized, and gently resuspended in V nucleofection solution to a final concentration of 7 × 10^6 cells/100 μl. Next, 5 μg of pCIneo/Mel1c vector was mixed with 100 μl of the COS7 cell suspension, transferred to a […] electroporation cuvette, and nucleofected using program A024 and an Amaxa Nucleofector apparatus. Just after the nucleofection, 500 μl of media supplemented with 20% (v/v) fetal calf serum was added to the cell suspension and cultured in a humidified 37°C, 5% CO2 incubator for 20 minutes. Fourteen million cells were transferred to a T225 flask containing 50 ml of media supplemented with 20% (v/v) fetal calf serum and cultured in a humidified 37°C, 5% CO2 incubator. Two days after transfection, the cells were harvested in PBS, pelleted, and stored at -80°C until use.
(§2) This approach has been described very often by our laboratory and others. […] The results were expressed as Ki, taking into account the concentration of radioligand used in each experiment. […] The reaction was stopped by rapid filtration through GF/B Unifilters, followed by three successive washes with ice-cold buffer. Data were analyzed by using the program PRISM (GraphPad Software Inc., San Diego, CA). For saturation assays, the density of binding sites (Bmax) and the dissociation constant of the radioligand (KD) were calculated according to the Scatchard method. […] A similar protocol was used when the binding was performed on whole cells, as described by Legros et al.. As per Plos One policy, all the raw data–listings from radioactivity counter are attached as raw files (Supplementary Tables A to M in S1 Data).
(§3) To obtain stable expression of the receptor for future studies, a preliminary step involving transient expression of the receptor was performed. The Mel1c receptors from the three species were expressed in transiently transfected COS7 cells. A limited number of compounds were tested in order to gain a preliminary perception of the characteristics of Mel1c from these species.

GPR50 = conditions: mammalian melatonin-related receptor; cited from earlier work
Platypus Mel1C [1] = target: T2, Platypus Mel1C (Ornithorhynchus anatinus, UniProt A0A2P1K6N2); assay: 2-[125I]-iodomelatonin competition binding, membranes from stably transfected CHO cells, platypus Mel1c
T2 sequence (A0A2P1K6N2 1-349): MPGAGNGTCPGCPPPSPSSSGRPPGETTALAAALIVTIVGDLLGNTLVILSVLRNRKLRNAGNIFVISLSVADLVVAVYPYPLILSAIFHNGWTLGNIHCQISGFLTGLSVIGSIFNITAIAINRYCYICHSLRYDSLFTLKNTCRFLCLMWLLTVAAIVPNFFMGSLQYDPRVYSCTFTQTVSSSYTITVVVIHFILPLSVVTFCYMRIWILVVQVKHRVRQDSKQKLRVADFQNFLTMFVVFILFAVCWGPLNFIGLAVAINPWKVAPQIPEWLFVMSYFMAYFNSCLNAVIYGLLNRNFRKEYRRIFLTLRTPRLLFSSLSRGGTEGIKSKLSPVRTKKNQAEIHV
Procedure: (§4) CHO-Flp-In cells (Thermo Fisher Scientific, Waltham, USA) were cultivated in the presence of zeocin (0.1 mg/ml). The cells were cotransfected with either platypus (cloned sequence that will be submitted to GenBank) Mel1c/pcDNA5-FRT (platypus Mel1c) or X. laevis (NM 001087919.1) Mel1c/pcDNA5-FRT (clawed frog Mel1c) and Flp recombinase expression pOG44 plasmid using PEIpro (Invitrogen, Carlsbad, CA). CHO cells stably expressing platypus Mel1c or clawed frog Mel1c were selected using hygromycin (0.6 mg/ml). CHO-Flp-In-platypus Mel1c cells were grown in HAM F12 with 2 mM glutamine and supplemented with 10% fetal calf serum. Cells were selected using antibiotic pressure (hygromycin) for 72 h. […] After confirmation of the presence of the transgene, the cells were amplified up to 2 x 10^9 cells. This material was used to prepare the cell membranes used in further pharmacological experiments.
(§5) This standard procedure was described in a previous experiment with CHO cells expressing the sheep MT2 receptor [23]. […] The resulting pellet was suspended in 5 mM Tris/HCl (pH 7.4) containing 2 mM EDTA and homogenized using a Kinematica polytron. The homogenate was then centrifuged (20,000g, 30 min, 4°C) and the resulting pellet suspended in 75 mM Tris/HCl (pH 7.4) containing 2 mM EDTA and 12.5 mM MgCl2. The protein content was determined according to the method of Lowry et al. using the Bio-Rad kit (Bio-Rad SA, Ivry-sur-Seine, France). Aliquots of membrane preparations were stored in binding buffer (50 mM Tris/HCl, pH 7.4 containing 5 mM MgCl2 and 1 mM EDTA) at –80°C until use.
as §2

MT2 = conditions: introduction statement; cited from earlier work
Platypus Mel1C [2] = target: T2, Platypus Mel1C; assay: 2-[125I]-iodomelatonin competition binding, transiently transfected COS7 cells, platypus Mel1c; conditions: COS7 cells transiently transfected with Mel1c gene; radioligand 2-[125I]-iodomelatonin; two transfections, triplicate
Procedure: as §1, §2, §3

Xenopus Mel1C = target: T3, Xenopus Mel1C (Xenopus laevis, UniProt P49219); assay: 2-[125I]-iodomelatonin competition binding, membranes from stably transfected CHO cells, Xenopus Mel1c; conditions: radioligand 2-[125I]-iodomelatonin
T3 construct: expressed in transfected cells
T3 sequence (P49219 1-420): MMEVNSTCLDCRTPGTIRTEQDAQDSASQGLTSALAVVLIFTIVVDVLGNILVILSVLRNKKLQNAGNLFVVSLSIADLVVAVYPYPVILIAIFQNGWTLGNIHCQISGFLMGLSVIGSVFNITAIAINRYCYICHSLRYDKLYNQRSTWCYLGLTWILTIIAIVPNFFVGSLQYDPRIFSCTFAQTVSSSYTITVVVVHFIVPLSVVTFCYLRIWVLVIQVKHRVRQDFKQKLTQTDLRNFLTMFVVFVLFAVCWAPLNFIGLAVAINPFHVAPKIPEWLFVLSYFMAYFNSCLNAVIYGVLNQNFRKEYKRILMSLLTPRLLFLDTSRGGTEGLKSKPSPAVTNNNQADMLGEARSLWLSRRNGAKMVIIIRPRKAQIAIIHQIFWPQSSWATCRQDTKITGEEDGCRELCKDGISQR
Procedure: as §4, §5, §2

MT1 = conditions: introduction statement; cited from earlier work
hMT1 = hMT1 (Homo sapiens, UniProt P48039); assay: 2-[125I]-iodomelatonin competition binding, human MT1; conditions: membranes from stably transfected CHO cells; radioligand 2-[125I]-iodomelatonin; read-out: hMT1 (converted)
Chain of hMT1 (P48039 whole entry): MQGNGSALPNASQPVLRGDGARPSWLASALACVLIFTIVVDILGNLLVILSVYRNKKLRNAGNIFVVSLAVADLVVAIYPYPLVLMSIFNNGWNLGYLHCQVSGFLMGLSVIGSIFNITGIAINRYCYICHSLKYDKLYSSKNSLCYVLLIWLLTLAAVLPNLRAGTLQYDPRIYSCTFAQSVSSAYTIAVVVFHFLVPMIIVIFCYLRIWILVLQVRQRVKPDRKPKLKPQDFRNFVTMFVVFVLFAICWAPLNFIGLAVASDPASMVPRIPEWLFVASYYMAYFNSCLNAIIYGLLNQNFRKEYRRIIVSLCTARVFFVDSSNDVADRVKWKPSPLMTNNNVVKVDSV
Procedure: as §2

G. gallus Mel1c receptor = target: T4, G. gallus Mel1c receptor (Gallus gallus, UniProt P49288); assay: 2-[125I]-iodomelatonin competition binding, transiently transfected COS7 cells, chicken Mel1c; conditions: COS7 cells transiently transfected with Mel1c gene; radioligand 2-[125I]-iodomelatonin; two transfections, triplicate; read-out: pKi Gallus gallus (converted)
T4 construct: expressed in transfected cells; host or cells: COS7 (transient nucleofection, pCIneo vector)
T4 sequence (P49288 1-346): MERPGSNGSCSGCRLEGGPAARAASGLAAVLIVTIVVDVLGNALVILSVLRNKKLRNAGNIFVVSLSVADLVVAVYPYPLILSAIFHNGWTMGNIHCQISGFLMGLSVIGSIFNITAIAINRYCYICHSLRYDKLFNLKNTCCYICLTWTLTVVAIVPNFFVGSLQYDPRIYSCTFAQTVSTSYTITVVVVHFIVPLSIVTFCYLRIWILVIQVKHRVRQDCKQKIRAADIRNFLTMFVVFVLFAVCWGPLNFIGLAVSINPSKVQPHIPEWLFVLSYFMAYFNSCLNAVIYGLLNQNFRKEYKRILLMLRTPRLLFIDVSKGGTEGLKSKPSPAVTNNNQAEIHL
Procedure: as §1, §2, §3

hMT2 = target: T5, hMT2 (Homo sapiens, UniProt P49286); assay: 2-[125I]-iodomelatonin competition binding, human MT2; conditions: membranes from stably transfected CHO cells; radioligand 2-[125I]-iodomelatonin; read-out: hMT2 (converted)
T5 sequence (P49286 1-362): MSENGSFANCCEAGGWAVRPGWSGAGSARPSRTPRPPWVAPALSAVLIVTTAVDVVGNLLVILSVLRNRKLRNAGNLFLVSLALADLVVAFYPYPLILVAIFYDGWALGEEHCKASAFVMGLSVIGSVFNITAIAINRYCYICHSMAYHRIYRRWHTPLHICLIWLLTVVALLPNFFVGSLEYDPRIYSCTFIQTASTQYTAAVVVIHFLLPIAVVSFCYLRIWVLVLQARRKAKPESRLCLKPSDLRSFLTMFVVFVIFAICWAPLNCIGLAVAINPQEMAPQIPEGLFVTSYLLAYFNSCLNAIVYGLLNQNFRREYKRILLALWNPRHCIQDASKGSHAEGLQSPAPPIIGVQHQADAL
Procedure: as §2

[3] = membranes from stably transfected CHO cells, radioligand 2-[125I]-iodomelatonin, read-out: Platypus Mel1C (converted)

Row | Compound | affinity of QR2 for melatonin (quinone reductase 2; QR2) | Ki (X. laevis Mel1c receptor) | melatonin binding to GPR50 (GPR50) | Ki (Platypus Mel1C [1]; affinity of platypus Mel1c for melatonin, abstract statement, 'in the 1 nM range') | Ki (Platypus Mel1C [1]; [3]) | affinity of MT2 for melatonin (MT2) | pKi Ornithorhyncus anatinus (Platypus Mel1C [2]) | Ki (Xenopus Mel1C) | affinity of MT1 for melatonin (MT1) | Ki (hMT1) | Ki (G. gallus Mel1c receptor) | Ki (hMT2)
1 | COc1ccc2[nH]cc(CCNC(C)=O)c2c1 [Melatonin] | ~10 µM | 1.58 nM | does not bind melatonin | ~1 nM | 2 nM | ≤ 1 nM | 8.6 | 2 nM | ≤ 1 nM | – | – | –
2 | CCc1ccc2scc(CCNC(C)=O)c2c1 [S22153, N-[2-(5-ethylbenzothiophen-3-yl)ethyl]acetamide] | – | 100 nM | – | – | 50.1 nM | – | 7.6 | 126 nM | – | 6.31 nM | 200 nM | 10 nM
